According to the supplement of paper PMC13380429:

Key:
A549-ACE2 [1] = experiment: drug-induced phospholipidosis relative to tamoxifen; higher = more phospholipidosis
[2] = tested on: A549-ACE2 infected with SARS-CoV-2; experiment: morphology score (similarity to uninfected cells); higher = more like uninfected cells; settings: 24 h
U2OS [3] = experiment: cell viability relative to DMSO; higher = less toxic; settings: 72 h
Caco-2 [4] = experiment: as above; settings: 72 h
HepG2 [5] = experiment: as above; settings: 72 h
Calu-3 [6] = experiment: as above; settings: 72 h
Vero E6 [7] = experiment: as above; settings: 72 h
[8] = tested on: A549-ACE2 infected with SARS-CoV-2; experiment: cell count relative to DMSO; higher = less toxic; settings: 24 h
A549-ACE2 [9] = experiment: phospholipidosis EC50; higher = less potent phospholipidosis inducer
U2OS [10] = experiment: drug sensitivity score (DSS) for viability; higher = more toxic; extreme values may be limits of the assay; settings: 72 h
Caco-2 [11] = experiment: as above; settings: 72 h
HepG2 [12] = experiment: as above; settings: 72 h
Calu-3 [13] = experiment: as above; settings: 72 h
Vero E6 [14] = experiment: as above; settings: 72 h
[15] = tested on: A549-ACE2 infected with SARS-CoV-2; experiment: SARS-CoV-2 infection rate relative to DMSO; higher = more infection; settings: 24 h
U2OS [16] = experiment: relative viability EC50 (midpoint between 100% and the lowest measured viability); higher = less toxic; settings: 72 h
HepG2 [17] = experiment: as above; settings: 72 h
Calu-3 [18] = experiment: as above; settings: 72 h
Caco-2 [19] = experiment: as above; settings: 72 h
Vero E6 [20] = experiment: as above; settings: 72 h

C[C@H](Oc1cc(-c2cnn(C3CCNCC3)c2)cnc1N)c1c(Cl)ccc(F)c1Cl [crizotinib-(S)]
drug-induced phospholipidosis [%], A549-ACE2 [1]
Settings	0.3 µM	0.833333 µM	3.33333 µM	6.66667 µM	10 µM	30 µM
24 h	8.27	14.6	93.6	107	67.9	67.2
48 h	6.57	10.9	65	95.4	72.5	79.1
72 h	6.4	9.01	64.9	97.9	71.4	94.9

Settings	SARS-CoV-2 infection rate [%]	cell count [%]	cell viability [%]	morphology score	phospholipidosis EC50 [µM]
A549-ACE2 [9], 24 h	–	–	–	–	1.79
A549-ACE2 [9], 48 h	–	–	–	–	3.04
A549-ACE2 [9], 72 h	–	–	–	–	3.1
Caco-2 [4], 1 nM	–	–	93.9	–	–
Caco-2 [4], 10 nM	–	–	95.3	–	–
Caco-2 [4], 100 nM	–	–	99.2	–	–
Caco-2 [4], 1000 nM	–	–	95.1	–	–
Caco-2 [4], 10000 nM	–	–	62.1	–	–
Calu-3 [6], 1 nM	–	–	97.8	–	–
Calu-3 [6], 10 nM	–	–	96.2	–	–
Calu-3 [6], 100 nM	–	–	100.3	–	–
Calu-3 [6], 1000 nM	–	–	100.4	–	–
Calu-3 [6], 10000 nM	–	–	40	–	–
HepG2 [5], 1 nM	–	–	100	–	–
HepG2 [5], 10 nM	–	–	108	–	–
HepG2 [5], 100 nM	–	–	104	–	–
HepG2 [5], 1000 nM	–	–	90.9	–	–
HepG2 [5], 10000 nM	–	–	43.3	–	–
U2OS [3], 1 nM	–	–	98.3	–	–
U2OS [3], 10 nM	–	–	96.3	–	–
U2OS [3], 100 nM	–	–	99.2	–	–
U2OS [3], 1000 nM	–	–	96	–	–
U2OS [3], 10000 nM	–	–	41.1	–	–
Vero E6 [7], 1 nM	–	–	97.2	–	–
Vero E6 [7], 10 nM	–	–	99.6	–	–
Vero E6 [7], 100 nM	–	–	100	–	–
Vero E6 [7], 1000 nM	–	–	97	–	–
Vero E6 [7], 10000 nM	–	–	80.7	–	–
[2], 0.1 µM	–	–	–	0.15	–
[2], 0.3 µM	–	–	–	0.025	–
[2], 1 µM	–	–	–	0.27	–
[2], 3 µM	–	–	–	0.71	–
[2], 10 µM	–	–	–	0.36	–
[2], 30 µM	–	–	–	-0.08	–
[8], 0.1 µM	–	100	–	–	–
[8], 0.3 µM	–	102	–	–	–
[8], 1 µM	–	87	–	–	–
[8], 3 µM	–	93	–	–	–
[8], 10 µM	–	109	–	–	–
[8], 30 µM	–	18	–	–	–
[15], 0.1 µM	96	–	–	–	–
[15], 0.3 µM	100	–	–	–	–
[15], 1 µM	94	–	–	–	–
[15], 3 µM	30	–	–	–	–
[15], 10 µM	24	–	–	–	–
[15], 30 µM	82	–	–	–	–

Settings	drug sensitivity score	relative viability EC50 [µM]
Caco-2 [11]	2.6	–
Calu-3 [13]	3.2	–
Calu-3 [18]	–	3.21
HepG2 [12]	4.45	–
HepG2 [17]	–	2.22
U2OS [10]	3.9	–
U2OS [16]	–	2.61
Vero E6 [14]	0.8	–

O=C(Nc1cc(C(F)(F)F)cc(C(F)(F)F)c1)c1cc(Cl)ccc1O [IKK-2-inhibitor-V]
cell viability [%]
Settings	Caco-2 [4]	Calu-3 [6]	HepG2 [5]	U2OS [3]	Vero E6 [7]
1 nM	95.9	98.4	99.6	95.7	100
10 nM	89.4	107	99.6	101	90.5
100 nM	95.3	98.3	112	89.7	98.8
1000 nM	29.2	99.8	17.2	82.9	52.6
10000 nM	14.5	13.8	6.8	11.2	16.3

Settings	drug sensitivity score	relative viability EC50 [µM]
Caco-2 [11]	13.8	–
Caco-2 [19]	–	0.436
Calu-3 [13]	4.8	–
Calu-3 [18]	–	3.14
HepG2 [12]	14.7	–
HepG2 [17]	–	0.477
U2OS [10]	7.7	–
U2OS [16]	–	1.77
Vero E6 [14]	10.3	–
Vero E6 [20]	–	0.876

CN(C)C(=O)n1nnnc1Cc1ccc(-c2ccccc2)cc1
cell viability [%]
Settings	Caco-2 [4]	Calu-3 [6]	HepG2 [5]	U2OS [3]	Vero E6 [7]
1 nM	106	102	125	102	107
10 nM	106	98	108	105	106
100 nM	100	95.2	110	102	103
1000 nM	106	111	100	104	102
10000 nM	40.1	44.9	43.3	13.6	29.1

Settings	drug sensitivity score	relative viability EC50 [µM]
Caco-2 [11]	2.8	–
Caco-2 [19]	–	3.62
Calu-3 [13]	2.3	–
Calu-3 [18]	–	3.91
HepG2 [12]	3	–
HepG2 [17]	–	3.19
U2OS [10]	4.5	–
U2OS [16]	–	3.44
Vero E6 [14]	3.7	–
Vero E6 [20]	–	3.32

COc1ccc2nc3c(c(N)c2c1)CCCC3 [7-methoxytacrine]
drug-induced phospholipidosis [%], A549-ACE2 [1]
Settings	0.3 µM	0.833333 µM	3.33333 µM	6.66667 µM	10 µM	30 µM
24 h	0.14	-0.76	0.16	7.44	14.2	83.8
48 h	2.14	-1.42	1.92	4.91	9.37	110
72 h	5.21	-1.72	1.16	5.48	11.9	129

Settings	SARS-CoV-2 infection rate, [15] [%]	cell count, [8] [%]	cell viability, Caco-2 [4] [%]	cell viability, Calu-3 [6] [%]	cell viability, HepG2 [5] [%]	cell viability, U2OS [3] [%]	cell viability, Vero E6 [7] [%]	morphology score, [2]
1 nM	–	–	96	93	100	103	102	–
10 nM	–	–	98.2	102	91.4	102	99.8	–
100 nM	–	–	96.2	91.1	92.5	98.5	95.6	–
0.3 µM	102	103	–	–	–	–	–	-0.02
1000 nM	–	–	93.8	97.7	79.3	100	95.4	–
3 µM	81	109	–	–	–	–	–	0.53
10 µM	34	115	–	–	–	–	–	0.82
10000 nM	–	–	92.2	95.5	83.5	95.3	98.9	–
30 µM	17	111	–	–	–	–	–	0.76

Settings	drug sensitivity score	relative viability EC50 [µM]
Caco-2 [11]	0	–
Caco-2 [19]	–	> 10
Calu-3 [13]	0	–
Calu-3 [18]	–	> 10
HepG2 [12]	2.6	–
HepG2 [17]	–	> 10
U2OS [10]	0	–
U2OS [16]	–	> 10
Vero E6 [14]	0	–
Vero E6 [20]	–	> 10

COC(=O)c1cnn(-c2ccc(F)cc2F)c1/C=N/NC(=S)NC(C)(C)C
cell viability [%]
Settings	Caco-2 [4]	Calu-3 [6]	HepG2 [5]	U2OS [3]	Vero E6 [7]
1 nM	102	101	112	98.6	106
10 nM	90.6	101	107	98.3	101
100 nM	102	97.4	98.4	104	95.9
1000 nM	105	89.1	94.3	98	96.1
10000 nM	93.9	89.6	105	103	98.8

Settings	drug sensitivity score	relative viability EC50 [µM]
Caco-2 [11]	0	–
Caco-2 [19]	–	> 10
Calu-3 [13]	0.3	–
Calu-3 [18]	–	> 10
HepG2 [12]	0	–
HepG2 [17]	–	> 10
U2OS [10]	0	–
U2OS [16]	–	> 10
Vero E6 [14]	0	–
Vero E6 [20]	–	> 10

Cc1c(N)c(=O)n(-c2ccccc2)n1C [ampyrone]
cell viability [%]
Settings	Caco-2 [4]	Calu-3 [6]	HepG2 [5]	U2OS [3]	Vero E6 [7]
1 nM	103	138	96.5	97.6	101
10 nM	92	99.9	110	94.3	104
100 nM	100	98.6	105	100	99.2
1000 nM	96.7	96.4	111	95.8	95.4
10000 nM	95	98.6	106	102	90.5

Settings	drug sensitivity score	relative viability EC50 [µM]
Caco-2 [11]	0	–
Caco-2 [19]	–	> 10
Calu-3 [13]	0	–
Calu-3 [18]	–	> 10
HepG2 [12]	0	–
HepG2 [17]	–	> 10
U2OS [10]	0	–
U2OS [16]	–	> 10
Vero E6 [14]	0	–
Vero E6 [20]	–	> 10

CCN[C@H]1C[C@H](C)S(=O)(=O)c2sc(S(N)(=O)=O)cc21 [dorzolamide]
cell viability [%]
Settings	Caco-2 [4]	Calu-3 [6]	HepG2 [5]	U2OS [3]	Vero E6 [7]
1 nM	101	100	113	95.2	98.5
10 nM	108	100	93.7	100	101
100 nM	84	95.7	104	93.6	92.6
1000 nM	94.7	88.3	94.9	101	98.1
10000 nM	100	98.4	99.4	97.4	91.1

Settings	drug sensitivity score	relative viability EC50 [µM]
Caco-2 [11]	0	–
Caco-2 [19]	–	> 10
Calu-3 [13]	0	–
Calu-3 [18]	–	> 10
HepG2 [12]	0	–
HepG2 [17]	–	> 10
U2OS [10]	0	–
U2OS [16]	–	> 10
Vero E6 [14]	0	–
Vero E6 [20]	–	> 10
